Laboratory results as given in patent publication US20100143456A1, “MODEL MEMBRANE SYSTEMS” (priority 1999, published 2010).

Tested on: P815 cells
Assay: FACS analysis of hexa-histidine-tagged B7.1 and CD40 engrafted onto P815 cells via incorporated lipid
Format: cell-based, murine
Details: 0.1 mM lipid 30 min 37° C., then 6His B7.1 and CD40 each ~20 μg/ml, streptavidin-FITC
Experimental: FIG. 2 is the fluorescence profile, as measured by fluorescence-activated cell sorting, of p815 cells engrafted with biotinylated and hexa-histidine-tagged CD40 and B7.1 molecules and then stained with streptavidin-FITC.
Cultured P815 tumor cells were washed twice in PBS to remove proteins from the culture media and suspended to 1×10^7 cells/ml in PBS. The cells were then aliquoted into 96-well V-bottom Seroeluster plates (Costar, Corning, N.Y.) at […] and incubated with 125 μM NTA-DTDA (alone or as a mixture with other lipids as indicated) or 125 μM DMPC (control) in PBS containing 125 μM Zn^2+, for 40 min at 37° C. […] The relative level of NTA-DTDA incorporated was routinely assessed by FACS analysis (see below) after incubating the cells with biotinylated 6His peptide (B-6His) (0.2 μg/ml) for 30 min at 4° C., washing twice with PBS-0.1% v/v BSA, and then staining with streptavidin-FITC. The cells were incubated with streptavidin-FITC (33 μg/ml) in PBS containing 1% v/v BSA (PBS-1% v/v-BSA) for 30 min at 4° C., washed three times with PBS-1% v/v BSA, fixed with 2% v/v paraformaldehyde in PBS, and then analyzed for FITC-fluorescence by FACS. […]
The histograms in FIG. 2 show fluorescence-activated cell sorting (FACS) profiles of murine mastocytoma P815 cells carrying engrafted recombinant hexa-histidine-tagged murine B7.1 and CD40. […]

| Compound | level of fluorescence after staining with either monoclonal antibody (biotinylated mAb) | fluorescence of P815 cells relative to cells pre-incubated with DMPC (Control) (biotinylated anti-B7.1 or anti-CD40 mAb) |
| --- | --- | --- |
| CCCCCCCCCCCCCC(=O)OC[C@H](COP(=O)([O-])OCC[N+](C)(C)C)OC(=O)CCCCCCCCCCCCC [DMPC, di-myristoyl-phosphatidylcholine] | low level of fluorescence |  |
| CCCCCCCCCCCCCCN(CCCCCCCCCCCCCC)C(=O)CCC(=O)NCCCC[C@@H](C(=O)O)N(CC(=O)O)CC(=O)O [NTA-DTDA, N^α,N^αbis[carboxymethyl]-N^ε[(DTDA)suc]-L lysine] |  | 10-100 fold |
